# Target: T1, BK channels heterologously expressed in Xenopus laevis oocytes (Homo sapiens, UniProt Q12791)
# T1 construct: expressed in transfected cells; host or cells: Xenopus laevis oocytes
# Test: BK channel opening activity, two-electrode voltage clamp in Xenopus laevis oocytes
# Assay type: cell-based
# Details: Compound added in increasing concentrations, 1, 3 and 10 μM; step from −40 mV to +30 mV; FIG. 1
# Experimental: The electrical current through the BK channel is measured conventional two-electrode voltage clamp. BK current is activated by repeated step protocols. In brief, this protocol goes from a resting membrane potential of −40 mV lasting for 5 s to a depolarised step to +30 mV lasting for 1 s. The protocol was repeated continuously.
# Having reached a stable current level, Compound 1 was added in increasing concentrations. Between each application compound was washed out until baseline current activity was obtained.
# T1 sequence (Q12791 whole entry): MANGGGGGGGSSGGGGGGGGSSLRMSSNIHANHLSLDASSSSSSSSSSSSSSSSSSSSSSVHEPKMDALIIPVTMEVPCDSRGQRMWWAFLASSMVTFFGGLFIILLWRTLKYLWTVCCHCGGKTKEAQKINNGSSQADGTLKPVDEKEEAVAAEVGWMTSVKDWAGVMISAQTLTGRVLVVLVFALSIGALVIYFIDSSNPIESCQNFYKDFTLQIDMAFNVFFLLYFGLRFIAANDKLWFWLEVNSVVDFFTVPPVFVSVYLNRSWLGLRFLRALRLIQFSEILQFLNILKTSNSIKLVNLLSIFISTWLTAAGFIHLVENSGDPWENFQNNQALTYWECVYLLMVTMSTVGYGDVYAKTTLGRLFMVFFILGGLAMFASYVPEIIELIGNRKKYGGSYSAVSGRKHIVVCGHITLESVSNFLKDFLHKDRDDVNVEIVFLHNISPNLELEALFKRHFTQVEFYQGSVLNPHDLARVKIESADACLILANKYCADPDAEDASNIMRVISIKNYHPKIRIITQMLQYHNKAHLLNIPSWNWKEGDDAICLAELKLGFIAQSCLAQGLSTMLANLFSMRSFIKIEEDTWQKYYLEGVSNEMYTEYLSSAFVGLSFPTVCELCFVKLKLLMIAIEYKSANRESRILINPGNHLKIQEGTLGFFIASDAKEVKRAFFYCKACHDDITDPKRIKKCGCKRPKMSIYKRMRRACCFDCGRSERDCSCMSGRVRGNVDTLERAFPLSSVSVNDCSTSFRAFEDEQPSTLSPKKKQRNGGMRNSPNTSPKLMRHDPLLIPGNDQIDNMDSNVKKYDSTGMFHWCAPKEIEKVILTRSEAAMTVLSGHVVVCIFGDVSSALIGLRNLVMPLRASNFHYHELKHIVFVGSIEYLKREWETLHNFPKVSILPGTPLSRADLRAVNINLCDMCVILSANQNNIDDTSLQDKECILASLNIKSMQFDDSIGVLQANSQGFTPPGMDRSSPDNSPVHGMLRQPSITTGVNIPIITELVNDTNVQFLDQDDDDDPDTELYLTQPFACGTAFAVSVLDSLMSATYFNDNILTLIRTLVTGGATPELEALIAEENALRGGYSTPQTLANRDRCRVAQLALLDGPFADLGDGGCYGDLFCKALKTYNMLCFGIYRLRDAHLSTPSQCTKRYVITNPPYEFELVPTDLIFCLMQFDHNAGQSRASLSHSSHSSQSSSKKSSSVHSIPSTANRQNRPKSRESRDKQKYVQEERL
smiles,measurement,value
"FC(F)(F)c1cc(NC(=S)Nc2ccc(Br)cc2-c2nnn[nH]2)cc(C(F)(F)F)c1 [Compound 1, 1-(3,5-Bis-trifluoromethyl-phenyl)-3-[4-bromo-2-(1H-tetrazol-5-yl)-phenyl]-thiourea]",current activated by depolarisation (BK current),marked increase
